# Assay results taken from US9956181B2, “Composition of nanoformulated lycopene and method of using the composition” (priority 2015, dated 2018).
# What was measured:
# [1] = system: ovariectomized (OVX) rats; test: OVX rat study: serum minerals, enzymes and hormones; type: in vivo, Wistar rats; conditions: OVX rats; lycopene 45 mg/kg/day; ALN 2.0 μg/kg/day sc; P<0.001
# Experimental: (§1) A total of 264 Wistar female rats, ˜6 months old, were supplied by the Animal House at King Fahd Medical Research Center (KFMRC), KAU. Rats were housed in individual cages and maintained at 22° C. with a 12-h light/dark cycle. During the study period, rats were given standard rodent chow diet ad libitum (commercial rat cubes containing approximately 18% protein, 3% fat, 77% carbohydrate, and 2% of an inorganic-salt mixture with a vitamin supplement by weight, supplied by Grain Silos and Flour Mills Organization, Jeddah, Saudi Arabia) and water until the onset of intervention. Prior to surgery, rats were anesthetized with ketamine [(10% ketamine hydrochloride (80 mg/kg body weight), Cayman Chemical, Michigan, USA] and xylazine [(2% xylazine hydrochloride, 10 mg/kg body weight), Sigma-Aldrich Co., St. Louis, USA]. A single longitudinal skin incision was made on the dorsal midline at the level of the kidneys and both ovaries were ligated and removed to produce an ovariectomy in all OVX group animals. A SHAM-operated group, acting as a negative control for the effect of ovariectomy on bone parameters, underwent bilateral laparotomy, during which the ovaries were exposed but remained intact. […] The lycopene-supplemented groups were given lycopene (15, 30 and 45 mg/kg body weight per day) dissolved in corn oil by daily intra-gastric administration for the experimental period of 12 weeks. The SHAM, OVX and ALN control groups were given the same volume of corn oil without lycopene treatment. […] A 12-week randomized placebo-controlled study in order to examine the protective effects of lycopene supplementation on bone mass and fragility in OVX rats was concluded. Prior to surgery, body weight and bone mineral density (BMD) were obtained for all animals. Rats were randomized using a computer-generated randomization code into one of six groups: (1) sham-operated (SHAM; n=44); (2) ovariectomized control (OVX; n=44); (3) OVX lycopene-supplemented (15 mg/kg body weight per day) (n=44); (4) OVX lycopene-supplemented (30 mg/kg body weight per day) (n=44); (5) OVX lycopene-supplemented (45 mg/kg body weight per day) (n=44) and (6) OVX alendronate-treated (ALN) [2.0 μg/kg body weight per day subcutaneously (sc)] (n=44). Alendronate is an anti-resorptive agent for the treatment of osteoporosis and was used as a positive therapy control. […] All OVX groups were pair-fed with the SHAM group throughout the study to avoid the possible effects of ovariectomy-induced over-consumption and subsequent excessive weight gain. Treatment started 1 week after the surgery: this period of rest allowed the rats to recover from the stress associated with the surgery. […] Peripheral Quantitative CT (pQCT) scans were made of the proximal tibia metaphysis and the diaphysis. […]
# [2] = system: ovariectomized (OVX) rats; test: OVX rat study: biochemical bone turnover markers; type: in vivo, Wistar rats; conditions: ALN 2.0 μg/kg/day sc
# Experimental: as §1
# [3] = system: ovariectomized (OVX) rats; test: OVX rat study: in vivo pQCT densitometry of tibia metaphysis; set-up: species or system Wistar rats; conditions: 12 weeks, versus OVX control, P<0.001
# Experimental: (§2) A total of 264 Wistar female rats, ˜6 months old, were supplied by the Animal House at King Fahd Medical Research Center (KFMRC), KAU. Rats were housed in individual cages and maintained at 22° C. with a 12-h light/dark cycle. During the study period, rats were given standard rodent chow diet ad libitum (commercial rat cubes containing approximately 18% protein, 3% fat, 77% carbohydrate, and 2% of an inorganic-salt mixture with a vitamin supplement by weight, supplied by Grain Silos and Flour Mills Organization, Jeddah, Saudi Arabia) and water until the onset of intervention. Prior to surgery, rats were anesthetized with ketamine [(10% ketamine hydrochloride (80 mg/kg body weight), Cayman Chemical, Michigan, USA] and xylazine [(2% xylazine hydrochloride, 10 mg/kg body weight), Sigma-Aldrich Co., St. Louis, USA]. A single longitudinal skin incision was made on the dorsal midline at the level of the kidneys and both ovaries were ligated and removed to produce an ovariectomy in all OVX group animals. A SHAM-operated group, acting as a negative control for the effect of ovariectomy on bone parameters, underwent bilateral laparotomy, during which the ovaries were exposed but remained intact. […] Peripheral Quantitative CT (pQCT) scans were made of the proximal tibia metaphysis and the diaphysis. […]
# [4] = system: ovariectomized (OVX) rats; test: OVX rat study: ex vivo μCT analysis of tibial metaphysis and femur diaphysis; type: in vivo, Wistar rats
# Experimental: (§3) A total of 264 Wistar female rats, ˜6 months old, were supplied by the Animal House at King Fahd Medical Research Center (KFMRC), KAU. Rats were housed in individual cages and maintained at 22° C. with a 12-h light/dark cycle. During the study period, rats were given standard rodent chow diet ad libitum (commercial rat cubes containing approximately 18% protein, 3% fat, 77% carbohydrate, and 2% of an inorganic-salt mixture with a vitamin supplement by weight, supplied by Grain Silos and Flour Mills Organization, Jeddah, Saudi Arabia) and water until the onset of intervention. Prior to surgery, rats were anesthetized with ketamine [(10% ketamine hydrochloride (80 mg/kg body weight), Cayman Chemical, Michigan, USA] and xylazine [(2% xylazine hydrochloride, 10 mg/kg body weight), Sigma-Aldrich Co., St. Louis, USA]. A single longitudinal skin incision was made on the dorsal midline at the level of the kidneys and both ovaries were ligated and removed to produce an ovariectomy in all OVX group animals. A SHAM-operated group, acting as a negative control for the effect of ovariectomy on bone parameters, underwent bilateral laparotomy, during which the ovaries were exposed but remained intact. […] The lycopene-supplemented groups were given lycopene (15, 30 and 45 mg/kg body weight per day) dissolved in corn oil by daily intra-gastric administration for the experimental period of 12 weeks. The SHAM, OVX and ALN control groups were given the same volume of corn oil without lycopene treatment. […] A 12-week randomized placebo-controlled study in order to examine the protective effects of lycopene supplementation on bone mass and fragility in OVX rats was concluded. Prior to surgery, body weight and bone mineral density (BMD) were obtained for all animals. Rats were randomized using a computer-generated randomization code into one of six groups: (1) sham-operated (SHAM; n=44); (2) ovariectomized control (OVX; n=44); (3) OVX lycopene-supplemented (15 mg/kg body weight per day) (n=44); (4) OVX lycopene-supplemented (30 mg/kg body weight per day) (n=44); (5) OVX lycopene-supplemented (45 mg/kg body weight per day) (n=44) and (6) OVX alendronate-treated (ALN) [2.0 μg/kg body weight per day subcutaneously (sc)] (n=44). Alendronate is an anti-resorptive agent for the treatment of osteoporosis and was used as a positive therapy control. […] All OVX groups were pair-fed with the SHAM group throughout the study to avoid the possible effects of ovariectomy-induced over-consumption and subsequent excessive weight gain. Treatment started 1 week after the surgery: this period of rest allowed the rats to recover from the stress associated with the surgery. In addition, after surgery, rats were administered Diclofenac sodium injection (20 mg/Kg body weight) to reduce the pain associated with the surgery. Rats were weighed and examined daily. Blood and urine samples were collected at baseline, during, and at the end of treatment for measurement of various BTMs and other analytes. In vivo dual energy x-ray absorptiometry (DXA) measurements were made for the bone mineral content (BMC) and BMD of the whole body, lumbar spine (L1-L4), and the right humerus, together with body composition at 12 weeks of treatment. One day following the post-test DXA assessments (at 12 weeks, 16 rats in each group), animals were euthanized by decapitation and right and left femurs were extracted for further biomechanical and histomorphometric analyses. Blood and urine samples were collected from all experimental groups to measure biochemical analytes and BTMs at baseline and 4, 8, and 12 weeks of treatment. Peripheral Quantitative CT (pQCT) scans were made of the proximal tibia metaphysis and the diaphysis. In vivo micro-computed tomographic (μCT) scans of the proximal tibia were obtained during the treatment period to monitor changes in bone mass and microarchitecture. […]
# [5] = system: ovariectomized (OVX) rats; test: OVX rat study: dynamic bone histomorphometry of tibial metaphysis and diaphysis; type: in vivo, Wistar rats; conditions: ALN group, tibial diaphysis, for the most part
# Experimental: as §3
# [6] = system: ovariectomized (OVX) rats; test: OVX rat study: in vivo DXA densitometry of lumbar spine and humerus; set-up: species or system Wistar rats; conditions: 12 weeks, versus OVX control
# Experimental: as §2
# [7] = system: ovariectomized (OVX) rats; test: OVX rat study: ex vivo pQCT and biomechanical testing of lumbar spine and femur; type: in vivo, Wistar rats; conditions: 12 weeks
# Experimental: as §3, with “One day following the post-test DXA assessments (at 12 weeks, 16 rats in each group), animals were euthanized by decapitation and right and left femurs were extracted for further biomechanical and histomorphometric analyses. Blood and urine samples were collected from all experimental groups to measure biochemical analytes and BTMs at baseline and 4, 8, and 12 weeks of treatment.” left out, “diaphysis.” for “diaphysis. In vivo micro-computed tomographic (μCT) scans of the proximal tibia were obtained during the treatment period to monitor changes in bone mass and microarchitecture.”
# [8] = 12 weeks, lycopene, ALN 2.0 μg/kg/day, P<0.001
smiles,measurement,setting,value
"NCCCC(O)(P(=O)(O)O)P(=O)(O)O [ALN, alendronate, reference compound]",serum PTH values versus other groups,[1],significantly higher
same,OVX-induced increases in s-CTX and u-DPD levels,[2]; P<0.001,prevented
same,s-OC and s-PINP levels compared with OVX control,"[2]; week 12, P<0.001",significantly decreased
same,"OVX-induced bone loss (total and trabecular BMD, proximal tibia, pQCT)",[3],prevented
same,"decrease in Tb.Sp, tibia metaphysis (μCT), compared with OVX group",[4]; [8],37.3%
same,"increase in BV/TV, tibia metaphysis (μCT), compared with OVX group",[4]; [8],128.9%
same,"increase in Tb.N, tibia metaphysis (μCT), compared with OVX group",[4]; [8],25.8%
same,relative bone volume (BV/TV) of the femur diaphysis (μCT),"[4]; OVX rats, 12 weeks",nor lycopene or ALN treatment had significant effects
same,femoral cortical values for Ct.Th and Ct.Po (μCT),"[4]; lycopene 30 and 45 mg/kg/day, ALN, versus SHAM and OVX groups",improved
same,OVX-induced effects on cortical bone indices,[5],also prevented
same,"OVX-induced bone loss (BMC and BMD, lumbar spine and humerus, DXA)",[6],prevented
same,OVX-induced decrease in cortical thickness,"[7]; lycopene particularly 45 mg/kg/day, alendronate 2.0 μg/kg/day",prevented
same,lumbar spine biomechanical / bone strength parameters,"[7]; lycopene particularly 30 and 45 mg/kg/day, ALN 2.0 μg/kg/day, P<0.05",significantly increased
